Data taken from publication PMC7822874, “Chemoprotective antimalarials identified through quantitative high-throughput screening of Plasmodium blood and liver stage parasites” (Scientific Reports, 2021).

Tests used:
in vitro = settings: human, hepg2-a16-cd81egfp cells
[1] = tested on: luciferase-expressing P. berghei liver stage parasites in HepG2 cells; experiment: Inhibition of liver-stage development assay (ILSDA), Method 2 (WRAIR, 96-well); assay type: cell-based, Plasmodium berghei; settings: Method 2; for Max Resp (signal direction of the dose response): Decrease = decreasing P. berghei viability with dose, Increase = increasing signal, Inactive = no dose response

In the case of `COc1cc2nc(Nc3cccc(F)c3)nc(N)c2cc1OC` [NCGC00107351], the viability at 3 µM (in vitro; % viability) is reported as 101%.
In the case of `COc1cc2nc(Nc3ccc(F)cc3)nc(N)c2cc1OC` [NCGC00107353], the viability at 3 µM (in vitro; % viability) is reported as 92.7%.
In the case of `COc1ccc(C)cc1Nc1nc(N)c2cc(OC)c(OC)cc2n1` [NCGC00107383], the viability at 3 µM (in vitro; % viability) is reported as 94.9%.
For `Cc1cccc(N2CCN(c3nc4ccccc4c4nnc(C)n34)CC2)c1C` [NCGC00107423], the “Max Resp (signal direction of the dose response)” value [1] was “Inactive”.
`COc1cc2nc(SCc3ccc(F)cc3)n3nc(CCn4c(C)nc5ccccc54)nc3c2cc1OC` [NCGC00108638] showed a viability at 3 µM (in vitro; % viability) of 107%.
Work on `COc1ccc(C2Sc3ccccc3N=C3C2=C(O)c2ccccc23)c(OC)c1OC` (centres unmarked) [NCGC00108825] yielded a viability at 3 µM (in vitro; % viability) of 43.7%.
Work on `CCCN(C(=O)C(=O)Nc1ccc2nc3n(c(=O)c2c1)CCCCC3)c1ccc(OCC)cc1` [NCGC00114456] yielded a viability at 3 µM (in vitro; % viability) of 93.7%.
In the case of `Cc1cccc(N(C)c2nc3ccccc3c3nnc(C)n23)c1` [NCGC00126108], the “Max Resp (signal direction of the dose response)” value [1] is reported as “Decrease”, the AC50 ([1]; Hill fit, 50% of maximum activity response, read-out: AC50) is reported as 200 nM and the “Log AC50 (M)” value ([1]; log10 of molar AC50 from Hill fit) is reported as -6.700 M.
For `O=C(Nc1ccc(Br)cc1)c1ccc(F)c([S+](=O)([O-])NC2CCCCCC2)c1` [NCGC00139407], the viability at 3 µM (in vitro; % viability) was 78.6%.
`CN1CCc2cccc3c2[C@@H]1Cc1ccc(O)c(O)c1-3` [NCGC00142462] showed a viability at 3 µM (in vitro; % viability) of 93.3%.
For `O=C1C(=O)c2ncccc2-c2cccnc21` [NCGC00160369], the viability at 3 µM (in vitro; % viability) was 24.2%.
Work on `CNc1ccc2oc(C[C@@H]3OC4(CC[C@@H]3C)O[C@H]([C@@H](C)C(=O)c3ccc[nH]3)[C@H](C)C[C@H]4C)nc2c1C(=O)O` (some centres unmarked) [NCGC00161647] yielded a viability at 3 µM (in vitro; % viability) of 12.5%.
For `CN([C@@H](Cc1ccc(OS(=O)(=O)c2cccc3cnccc23)cc1)C(=O)N1CCN(c2ccccc2)CC1)S(=O)(=O)c1cccc2cnccc12` [NCGC00162398], the viability at 3 µM (in vitro; % viability) was 95.6%.
Compound `COC(=O)C1=C(C)NC(C)=C(C(=O)OCCCN2CCC(c3ccccc3)(c3ccccc3)CC2)C1c1cccc([N+](=O)[O-])c1` (centres unmarked) [NCGC00163135] has a viability at 3 µM (in vitro) of 81%.
In the case of `CCN(CC)CCCN(c1ccccc1)C1Cc2ccccc2C1` [NCGC00167576], the viability at 3 µM (in vitro; % viability) is reported as 99.6%.
Compound `C=C[C@]1(C)C[C@@H](OC(=O)CSC(C)(C)CNC(=O)[C@H](N)C(C)C)[C@]2(C)[C@H](C)CC[C@]3(CCC(=O)[C@H]32)[C@@H](C)[C@@H]1O` [NCGC00167968] has a viability at 3 µM (in vitro; % viability) of 87.5%.
Work on `O=C(CCCCCCC(=O)Nc1ccccc1)NO` [NCGC00168085] yielded a viability at 3 µM (in vitro; % viability) of 45.6%.
`Clc1ccc(CCC(Cn2ccnc2)Sc2c(Cl)cccc2Cl)cc1` (centres unmarked) [NCGC00179596] gave a viability at 3 µM (in vitro; % viability) of 100%.
In the case of `CCn1cnc2c(Nc3cc(F)cc(F)c3)nc(C#N)nc21` [NCGC00181918], the viability at 3 µM (in vitro; % viability) is reported as 79.4%.
`COc1ccc(Nc2cc(O)c3ncccc3c2)cc1` [NCGC00183797] gave a viability at 3 µM (in vitro; % viability) of 69%.
`O=C1c2ccccc2CCc2ccc(B(O)O)cc21` [NCGC00183917] showed a viability at 3 µM (in vitro; % viability) of 82.4%.
Work on `O[C@H]1[C@H]2c3cc4c(cc3CN3CCC(=C[C@@H]1O)[C@@H]23)OCO4` [NCGC00262562] yielded a viability at 3 µM (in vitro; % viability) of 83.5%.
For `O=[S+]([O-])(c1ccc(Cl)cc1)N1CCN(C(=S)Nc2ccc(F)c(Cl)c2)CC1` [NCGC00345140], the viability at 3 µM (in vitro; % viability) was 85.6%.
`Cc1ccc(C(=O)Nc2nc(-c3ccccn3)cs2)cc1[S+](=O)([O-])N1CCOCC1` [NCGC00345210] showed a viability at 3 µM (in vitro; % viability) of 29.5%.
With `OCCCNc1cc(-c2ccnc(Nc3cccc(Cl)c3)n2)ccn1` [NCGC00346940] the viability at 3 µM (in vitro; % viability) was 8.46%.
`O[C@H]1[C@H](NCC2CCCCC2)[C@H]2CO[C@H](O2)[C@@H]1N1CCC(Cc2ccccc2)CC1` [NCGC00394729] showed a viability at 3 µM (in vitro; % viability) of 99.2%.
`CC1=C[C@@H](CNCc2cccnc2)[C@H](C(C)C)C[C@H]1Cc1nnc(-c2ccc([N+](=O)[O-])cc2)o1` [NCGC00394797] showed a viability at 3 µM (in vitro; % viability) of 91.7%.
For `c1ccc(Nc2cc3c(cn2)CN(Cc2ccc4[nH]ccc4c2)CCN3)cc1` [NCGC00411105], the viability at 3 µM (in vitro; % viability) was 49.4%.
With `COc1ccccc1Nc1cnc2ccc(-c3ccc(OC)c(OC)c3)nn12` [NCGC00412573] the viability at 3 µM (in vitro; % viability) was 82.7%.
For `CC(C)c1ccc(CC(=O)N2CCCc3ncc(C(=O)Nc4cccnc4)cc32)cc1` [NCGC00420003], the viability at 3 µM (in vitro; % viability) was 45.1%.
In the case of `Cc1nn2c(c1-c1ccccc1-c1ccccc1)N(CC1CC1)CCC2` [NCGC00420435], the viability at 3 µM (in vitro; % viability) is reported as 49.8%.
Compound `Cc1nn2c(c1-c1ccccc1-c1ccccc1)N(CCC(C)C)CCC2` [NCGC00420437] has a viability at 3 µM (in vitro; % viability) of 15.3%.
`Cc1cc(C)cc(C(=O)Nc2ccc3c(N4CCCC4)ncnc3c2)c1` [NCGC00425487] gave a viability at 3 µM (in vitro; % viability) of 31.8%.
For `O=C(Nc1ccc2c(N3CCCCC3)ncnc2c1)c1cc(F)cc(F)c1` [NCGC00425525], the viability at 3 µM (in vitro; % viability) was 53.4%.
Work on `O=C(Nc1ccc2c(N3CCOCC3)ncnc2c1)c1cccc(Br)c1` [NCGC00425561] yielded a viability at 3 µM (in vitro; % viability) of 49.3%.
Work on `COc1ccc(CCC(=O)N2Cc3ccccc3OC3(CCN(C)CC3)C2)cc1` [NCGC00456460] yielded a viability at 3 µM (in vitro; % viability) of 106%.
